According to patent US9546153B2, “Bicyclic heterocycle substituted pyridyl compounds useful as kinase modulators” (BRISTOL-MYERS SQUIBB COMPANY, priority 2012, dated 2017):
Where two headings read alike, the source gives them in different places.

Key:
IRAK4 = IRAK4 (Homo sapiens (Human), UniProt Q9NWZ3); experiment: IRAK4 Inhibition Assay; type: biochemical; conditions: ATP 500 μM; IRAK4 0.6 nM; 60 min at room temperature
Procedure: The assays were performed in U-bottom 384-well plates. […] The reaction was initiated by the combination of IRAK4 with substrates and test compounds. The reaction was incubated at room temperature for 60 min. and terminated by adding 45 μL of 35 mM EDTA to each sample. The reaction mixture was analyzed on the Caliper LABCHIP® 3000 (Caliper, Hopkinton, Mass.) by electrophoretic separation of the fluorescent substrate and phosphorylated product.

[1] = system: TLR2 induced IL-6 in peripheral blood mononuclear cells (PBMCs); experiment: PBMC TLR2 Induced IL-6 Assay; type: cell-based, human; conditions: human PBMCs, 10 μg/ml lipoteichoic acid for 5 hours, IL-6 by ELISA, value without asterisk, read-out: Cell IC50
In short: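 IL-6 ELISA of supernatants after a 5 h challenge with the TLR2 agonist lipoteichoic acid (10 μg/ml). Before stimulation, human PBMCs (250000 cells/well; RPMI, 10% heat-inactivated FCS) received compound for 30 min at 37° C. Values given as IC50 or EC50.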

IRAK4, sequence (Q9NWZ3 whole entry, species assumed): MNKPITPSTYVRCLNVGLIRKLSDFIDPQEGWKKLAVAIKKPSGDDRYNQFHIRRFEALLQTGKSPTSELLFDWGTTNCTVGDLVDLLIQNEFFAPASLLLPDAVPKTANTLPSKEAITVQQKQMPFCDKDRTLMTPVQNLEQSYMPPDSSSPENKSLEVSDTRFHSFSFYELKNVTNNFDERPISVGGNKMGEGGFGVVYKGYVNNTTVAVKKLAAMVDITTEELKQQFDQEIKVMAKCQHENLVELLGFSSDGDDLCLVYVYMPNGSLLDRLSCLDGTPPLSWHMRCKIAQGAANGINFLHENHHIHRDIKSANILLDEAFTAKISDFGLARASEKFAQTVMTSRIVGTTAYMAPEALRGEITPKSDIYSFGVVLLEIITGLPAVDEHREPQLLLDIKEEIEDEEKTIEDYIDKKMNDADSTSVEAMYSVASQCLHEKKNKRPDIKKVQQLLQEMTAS

Compound	IC50 (IRAK4)	IC50 ([1]; Homo sapiens, PBMC, 5 h)	IC50 [1]
CCC(C)Nc1cc(Nc2ccn3nccc3n2)ncc1C(=O)NC[C@@H](F)C(C)(C)O (stereo partly drawn) [Example 387]	4.3 nM	293 nM	
CCC(C)Nc1cc(Nc2ccn3nccc3n2)ncc1C(=O)NC[C@@H](F)C(C)(C)O (stereo partly drawn) [Example 388]	6.6 nM		234 nM
CCC(O)(CC)[C@H](F)CNC(=O)c1cnc(Nc2ccn3nccc3n2)cc1NCC(C)(C)F [Example 389]	10.4 nM	574 nM	
CC(C)(O)[C@H](F)CNC(=O)c1cnc(Nc2nc3ccnn3cc2F)cc1NC1CCC(F)(F)C1 (stereo partly drawn) [Example 391]	2.5 nM		119 nM
CC(C)(O)[C@H](F)CNC(=O)c1cnc(Nc2nc3ccnn3cc2F)cc1NC1CCC(F)(F)C1 (stereo partly drawn) [Example 392]	8 nM		297 nM
CC(C)(O)[C@H](F)CNC(=O)c1cnc(Nc2ccc3ncsc3c2)cc1NC12CCC(NC(=O)c3ccccc3)(CC1)C2 [Example 394]	10.2 nM	311 nM	
CC(C)(O)[C@H](F)CNC(=O)c1cnc(Nc2ccc3ncsc3c2)cc1NC12CCC(NC(=O)c3cccnc3)(CC1)C2 [Example 395]	4.4 nM	333 nM	
CC(C)(O)[C@H](F)CNC(=O)c1cnc(Nc2ccc3ncsc3c2)cc1NC12CCC(NS(C)(=O)=O)(CC1)C2 [Example 396]	2.7 nM	351 nM	
CCOC(=O)NC12CCC(Nc3cc(Nc4ccc5ncsc5c4)ncc3C(=O)NC[C@@H](F)C(C)(C)O)(CC1)C2 [Example 397]	4.9 nM	197 nM	
CN(C)CC(=O)NC12CCC(Nc3cc(Nc4ccc5ncsc5c4)ncc3C(=O)NC[C@@H](F)C(C)(C)O)(CC1)C2 [Example 398]	3.5 nM	301 nM	
CC(C)(O)[C@H](F)CNC(=O)c1cnc(Nc2ccc3ncsc3c2)cc1NC12CCC(NC(=O)c3ccncc3)(CC1)C2 [Example 399]	3.1 nM	203 nM	
CC(C)(O)[C@H](F)CNC(=O)c1cnc(Nc2ccc3ncsc3c2)cc1NC12CCC(NC(=O)c3ccccn3)(CC1)C2 [Example 400]	7.5 nM	119 nM	
CC(C)(O)[C@H](F)CNC(=O)c1cnc(Nc2ccc3ncsc3c2)cc1NC12CCC(NS(=O)(=O)c3ccccc3)(CC1)C2 [Example 401]	12.6 nM	328 nM	
CC(C)Nc1cc(Nc2ccc3ncsc3c2)ncc1C(=O)NCCN1CCOCC1 [Example 402]	9 nM	357 nM	
CCC(O)(CC)[C@H](F)CNC(=O)c1cnc(Nc2cc3scnc3cn2)cc1NC1CC1 [Example 403]	21 nM	1480 nM	
CC(C)(O)[C@H](F)CNC(=O)c1cnc(Nc2ccc3ncccc3n2)cc1NC1CCCC1F (stereo partly drawn) [Example 404]	7.8 nM	1010 nM	
CC(C)(O)[C@H](F)CNC(=O)c1cnc(Nc2ccc3ncccc3n2)cc1NC1CCCC1F (stereo partly drawn) [Example 405]	5.8 nM		788 nM
CC(C)(O)[C@H](F)CNC(=O)c1cnc(Nc2ccc3ncc(C#N)cc3n2)cc1NC1CCC(F)(F)C1 (stereo partly drawn) [Example 406]	11.8 nM		1320 nM
CC(C)(O)[C@H](F)CNC(=O)c1cnc(Nc2ccc3ncc(C#N)cc3n2)cc1NC1CCC(F)(F)C1 (stereo partly drawn) [Example 407]	2.7 nM		260 nM

Compound	IC50 (IRAK4)	IC50 ([1]; Homo sapiens, PBMC, 5 h)	IC50 [1]
CC(C)(O)[C@H](F)CNC(=O)c1cnc(Nc2nc3ccnn3cc2F)cc1NC1CCC(F)C1 (stereo partly drawn) [Example 408]	1.9 nM		209 nM
CC(C)(O)[C@H](F)CNC(=O)c1cnc(Nc2nc3ccnn3cc2F)cc1NC1CCC(F)C1 (stereo partly drawn) [Example 409]	3 nM		207 nM
CC(C)(O)[C@H](F)CNC(=O)c1cnc(Nc2nc3ccnn3cc2F)cc1NC1CCC(F)C1 (stereo partly drawn) [Example 410]	3.2 nM		340 nM
CC(C)(O)[C@H](F)CNC(=O)c1cnc(Nc2ccc3ncc(C#N)cc3n2)cc1NC1CCC(F)C1 (stereo partly drawn) [Example 411]	2.4 nM		92 nM
CC(C)(O)[C@H](F)CNC(=O)c1cnc(Nc2ccc3ncc(C#N)cc3n2)cc1NC1CCC(F)C1 (stereo partly drawn) [Example 412]	2.6 nM		109 nM
CC(C)(O)[C@H](F)CNC(=O)c1cnc(Nc2ccc3ncc(C#N)cc3n2)cc1NC1CCC(F)C1 (stereo partly drawn) [Example 413]	6.3 nM		226 nM
CC(C)Nc1cc(Nc2cnc3[nH]ccc3c2)ncc1C(=O)NC[C@@H](F)C(C)(C)O [Example 415]	6.3 nM	502 nM	
CC(C)(O)[C@H](F)CNC(=O)c1cnc(Nc2ccc3ncsc3c2)cc1Nc1ncc(CO)s1 [Example 416]	1.8 nM	255 nM	
CC(C)(O)[C@H](F)CNC(=O)c1cnc(Nc2ccc3ncsc3n2)cc1NC1CCOCC1F (stereo partly drawn) [Example 417]	10.9 nM		72 nM
CC(C)(O)[C@H](F)CNC(=O)c1cnc(Nc2ccc3ncsc3c2)cc1NC1C2CCCC1CCC2 (stereo partly drawn) [Example 419]	5.1 nM	184 nM	
CC(C)(O)[C@H](F)CNC(=O)c1cnc(Nc2ccn3ncc(F)c3c2)cc1NC1CC(F)(F)C1 [Example 420]	3.6 nM	184 nM	
CC(C)(O)c1cnc(Nc2cc(Nc3ccn4nccc4n3)ncc2C(=O)NC[C@@H](F)C(C)(C)O)s1 [Example 421]	3.3 nM	131 nM	
CC(C)(O)[C@H](F)CNC(=O)c1cnc(Nc2nc3ccnn3cc2F)cc1NC1CCCOC1 (stereo partly drawn) [Example 422]	11.3 nM	753 nM	
CC(CO)Nc1cc(Nc2nc3ccnn3cc2F)ncc1C(=O)NC[C@@H](F)C(C)(C)O (stereo partly drawn) [Example 423]	6.5 nM	461 nM	
CC(C)Nc1cc(Nc2ccc3ncsc3c2)ncc1C(=O)NC1CCCC(C(C)(C)O)C1 (stereo not drawn) [Example 425]	13.1 nM	560 nM	
CC(C)Nc1cc(Nc2ccc3ncc(F)cc3n2)ncc1C(=O)NC[C@@H](F)C(C)(C)O [Example 427]	1.5 nM	42 nM	
CC(C)(O)[C@H](F)CNC(=O)c1cnc(Nc2ccc3ncc(F)cc3n2)cc1NC1CCOCC1 [Example 428]	2 nM	52 nM	
CC(C)(O)[C@H](F)CNC(=O)c1cnc(Nc2ccc3ncc(F)cc3n2)cc1NC1CC1 [Example 429]	2.1 nM	128 nM	

More lines, main results first:

IC50 (IRAK4)	Compound	IC50 ([1]; Homo sapiens, PBMC, 5 h)	IC50 [1]
1.6 nM	CC(C)(O)[C@H](F)CNC(=O)c1cnc(Nc2ccc3ncccc3n2)cc1NC1CCOCC1 [Example 430]	102 nM	
6.5 nM	CC(C)(O)[C@H](F)CNC(=O)c1cnc(Nc2cnc3[nH]ccc3c2)cc1NC1CC1 [Example 434]	52 nM	
2.1 nM	CC(C)(O)[C@H](F)CNC(=O)c1cnc(Nc2ccn3nccc3c2F)cc1N[C@@H]1CCCC1(F)F [Example 435]	79 nM	
4.9 nM	CC(C)(O)[C@H](F)CNC(=O)c1cnc(Nc2nc3ccnn3cc2F)cc1NC1CCOCC1F (stereo partly drawn) [Example 436]	346 nM	
4.9 nM	CCNc1cc(Nc2ccc3ncc(F)cc3n2)ncc1C(=O)NC[C@@H](F)C(C)(C)O [Example 437]	214 nM	
11.6 nM	CC(C)(O)[C@H](F)CNC(=O)c1cnc(Nc2ccc3ncccc3n2)cc1NC1CCOCC1F (stereo partly drawn) [Example 438]		168 nM
3.1 nM	CC(C)(O)[C@H](F)CNC(=O)c1cnc(Nc2ccc3ncccc3n2)cc1NC1CCOCC1F (stereo partly drawn) [Example 439]		64 nM
1.8 nM	CC(C)(O)[C@H](F)CNC(=O)c1cnc(Nc2ccc3ncc(C#N)cc3n2)cc1NC1CCCC1(F)F (stereo partly drawn) [Example 441]	28 nM	
5.6 nM	CC(C)(O)[C@H](F)CNC(=O)c1cnc(Nc2ccc3ncc(C#N)cc3n2)cc1NC1CCCOC1 (stereo partly drawn) [Example 442]	106 nM	
4.5 nM	CC(C)(O)[C@H](F)CNC(=O)c1cnc(Nc2ccc3ncc(C#N)cc3n2)cc1NC1CCCOC1 (stereo partly drawn) [Example 443]		125 nM
2.3 nM	CC(C)(O)[C@H](F)CNC(=O)c1cnc(Nc2ccc3ncc(C(N)=O)cc3n2)cc1NC1CCC1 [Example 444]	55 nM	
3.8 nM	CC(C)(O)[C@H](F)CNC(=O)c1cnc(Nc2ncc3ncccc3n2)cc1N[C@H]1CCC[C@@H]1F [Example 445]	106 nM	
10.6 nM	CC(C)(O)[C@H](F)CNC(=O)c1cnc(Nc2ncc3ncccc3n2)cc1N[C@@H]1CCC[C@@H]1F [Example 446]	94 nM	
2 nM	CC(C)(O)[C@H](F)CNC(=O)c1cnc(Nc2ncc3ncccc3n2)cc1NC1CCC(F)C1 (stereo partly drawn) [Example 447]		1250 nM
16.5 nM	CC(C)(O)[C@H](F)CNC(=O)c1cnc(Nc2ncc3ncccc3n2)cc1NC1CCC(F)C1 (stereo partly drawn) [Example 448]		47 nM
1.7 nM	CC(F)CNc1cc(Nc2ccc3ncsc3c2)ncc1C(=O)NC[C@@H](F)C(C)(C)O (stereo partly drawn) [Example 450]	217 nM	
5 nM	CC(F)CNc1cc(Nc2ccc3ncsc3c2)ncc1C(=O)NC[C@@H](F)C(C)(C)O (stereo partly drawn) [Example 451]		258 nM
2.5 nM	CC(C)(O)[C@H](F)CNC(=O)c1cnc(Nc2ccn3nccc3n2)cc1NC1CC2CC2C1(F)F (stereo partly drawn) [Example 452]	239 nM	
2.6 nM	CC(C)(O)c1cnc(Nc2cc(Nc3nc4ccnn4cc3F)ncc2C(=O)NC[C@@H](F)C(C)(C)O)s1 [Example 453]	836 nM	
2.8 nM	CC(C)(F)CNc1cc(Nc2cc3scnc3cc2F)ncc1C(=O)NC[C@@H](F)C(C)(C)O [Example 454]	38 nM	
